Laboratory results: patent US6558900B2, “Regulation of apoptosis and in vitro model for studies thereof” (Emory University, priority 1996, dated 2003)
“Also recorded” adds a separate entry of the source. Where a name gives a salt, the structure may show the parent alone.

Tests used:
variety of cell types = conditions: cited from earlier work
CPP32 [1] = assay: Apaf-2 activity: recombining with phosphocellulose flow through fraction (Apaf-1) and 35S-labeled CPP32; assay type: biochemical, human; conditions: 0.2 μg protein with phosphocellulose flowthrough fraction, 1 mM dATP
Procedure: FIG. 3 illustrates fractionation and reconstitution of dATP-dependent activation of CPP32 by phosphocellulose chromatography. HeLa cell S-100 was subjected to phosphocellulose chromatography and the column flow through and bound material were collected as described in the Examples. Aliquots (10 μl) of HeLa S-100 (50 μg) (lanes 1 and 2), phosphocellulose flow through fraction (PC-FT) (lanes 3 and 4), phosphocellulose bound fraction (PC-B) (lanes 5 and 6), and the mixture of phosphocellulose flow through and bound material (lanes 7 and 8) were incubated with aliquots of 3 μl in vitro translated, ^35S-labeled CPP32 at 30° C. for 1 hr in the absence (lanes 1,3,5,7) or presence (lanes 2,4,6,8) of 1 mM dATP. The samples were subjected to SDS-PAGE, transferred to a nitrocellulose filter, and the filter was exposed to film for 16 hours at room temperature.
The Apaf-2 activity that bound to the phosphocellulose column was purified through the Mono S column as described in Example 7. […] In FIG. 4B, aliquots (30 μl) of the Mono-S fractions were subjected to 15% SDS-PAGE and the proteins were visualized by silver staining.
Aliquots of 0.2 μg of Apaf-2 purified through the Mono S column (lanes 1, 2), cytochrome c from bovine heart (lanes 3, 4), and rat liver (lanes 5, 6) were incubated with aliquots of 10 μl phosphocellulose flowthrough fraction and 3 μl in vitro translated, 35S-labeled CPP32 at 30° C. for 1 hr in a final volume of 20 μl buffer A in the absence (lanes 1,3,5) or presence of (lanes 2, 4, 6) 1 mM dATP. Samples were subjected to SDS-PAGE and transferred to a nitrocellulose filter which was then exposed to a film for 16 hr at room temperature.
To isolate the protein(s) required for the activation of CPP32, HeLa S-100 was loaded onto a phosphocellulose column, and the flow-through and bound fractions were collected. […] When the flowthrough and bound fractions were mixed, CPP32-activating activity was restored (lanes 7-8). […] The factor(s) that flow through the phosphocellulose column are designated apoptotic protease activating factor-1 (Apaf-1) and the factor that bound to the column is designated apoptotic protease activating factor-2 (Apaf-2). It is understood that “Apaf-1” may represent more than one protein or it may represent a combination of protein(s) and other factors.
Apaf-2 activity was assayed by recombining with Apaf-1 after purification by the following steps. First, the Apaf-2 fraction was subjected to 50% ammonium sulfate precipitation. All of the activity remained in the supernatant while most of the protein precipitated (Table I). The supernatant was loaded onto a phenyl-sepharose (hydrophobic interaction) column and the activity was eluted with 1 M ammonium sulfate. The eluate was passed through a gel filtration column; active fractions were subjected to sequential Mono Q (anion exchange) and Mono S (cation exchange) chromatography. The Apaf-2 activity flowed through the Mono Q column, and the flow through was directly loaded onto the Mono S column. Bound Apaf-2 activity was then eluted with a 100-300 mM NaCl linear salt gradient. The fractions from the Mono S column were collected and assayed. […] The active fractions were analyzed by SDS-PAGE (FIG. 4B). A protein of apparent molecular mass of 15 kDa was co-eluted with the activity. No other proteins were detected by silver staining in the active Apaf-2 fractions.
CPP32 was translated and purified as described above. […]

CPP32 [2] = assay: Reconstitution of dATP-dependent CPP32 activation in HeLa S-100 immunodepleted of cytochrome c; assay type: biochemical, human; conditions: 0.2 μg added to immunodepleted HeLa S-100, 1 mM dATP
Procedure: (§1) Cytochrome c present in the HeLa cell S-100 was immunodepleted as described in the Example 10. In FIG. 7A, 10 μl aliquots of HeLa S-100 (50 μg) (lanes 1 and 2), or 10 μl aliquots of HeLa S-100 immunodepleted of cytochrome c (lanes 3 and 4), or 10 μl of HeLa S-100 immunodepleted of cytochrome c supplemented with 0.2 μg Apaf-2 purified through the Mono S column (H) (lanes 5 and 6), bovine heart cytochrome c (B) (lanes 7 and 8), or rat liver cytochrome c (R) (lanes 9 and 10), were incubated with aliquots of 3 μl in vitro translated, ^35S-labeled CPP32 in the absence (lanes 1, 3, 5, 7, 9) or presence (lanes 2, 4, 6, 8, 10) of 1 mM dATP at 30° C. for 1 hr in a final reaction volume of 20 μl of buffer A. Samples were subjected to SDS-PAGE and transferred to a nitrocellulose filter which were then exposed to film for 16 hr at room temperature. In FIG. 7B, HeLa S-100 (50 μg) immunodepleted of cytochrome c were reconstituted with the indicated amount of Apaf-2 (purified through Mono S column step) in a CPP32 cleavage reaction as described in FIG. 7A. The cleaved products (p20) were quantified in a Fuji-1000 phosphorimager machine and plotted in comparison with that generated by HeLa S-100. In FIG. 7C, aliquots of 50 μl of HeLa S-100 (250 μg) (lanes 1 and 2), or 50 μl of HeLa S-100 immunodepleted of cytochrome c (lanes 3 and 4), or 50 μl of HeLa S-100 immunodepleted of cytochrome c supplemented with 1 μg apaf-2 purified through the Mono S column (H) (lanes 5 and 6), bovine heart cytochrome c (B) (lanes 7 and 8), or rat liver cytochrome c (R) (lanes 9 and 10), were incubated with aliquots of 6 μl hamster liver nuclei in the absence (lanes 1, 3, 5, 7, 9) or presence (lanes 2, 4, 6, 8, 10) of 1 mM dATP at 37° C. for 2 hr in a final reaction volume of 60 μl. The DNA were isolated as described in the Examples, analyzed on 2% agarose gel electrophoresis, and the DNA was visualized by ethidium bromide staining. In FIG. 7D, DNA fragmentation assays were carried out as in FIG. 7C using HeLa S-100 immunodepleted of cytochrome c alone (a,b) or supplemented with Apaf-2 purified through Mono S column step (c,d) in the absence (a,c) or presence of 1 mM dATP (b,d). After 2 hr incubation at 37° C., an aliquot of each reaction (30 μl) was stained with 4′,6′-diamidino-2-phenylindole (DAPI), and observed under a fluorescence microscope with a UV-2A combination filter.
To rule out the possibility that the Apaf-2 activity is due to a minor contaminating protein that co-purified with cytochrome c, an immunodepletion experiment was carried out using a monoclonal antibody against rat cytochrome c. This monoclonal antibody cross-reacts with purified Apaf-2. As shown in FIGS. 7A-7D, HeLa cell S-100 depleted of cytochrome c using the monoclonal anti-cytochrome c antibody lost the dATP-dependent activation of CPP32 and the ability to induce DNA fragmentation in the added nuclei (FIGS. 7A and 7C, lanes 3 and 4). Adding back either the purified Apaf-2 from HeLa cells or the commercial cytochrome c from bovine heart or rat liver to the immunodepleted extracts restored the dATP-dependent activation of CPP32 and DNA fragmentation (FIGS. 7A and 7C, lanes 5-10). The reconstitution of cytochrome c dependent-activation of CPP32 was evident with the addition of 0.01 μg (33 nM) of purified cytochrome c to the cytochrome c-depleted extracts (FIG. 7B).
CPP32 was translated and purified as described above. Aliquot of 3 μl of the in vitro translated CPP32 was incubated with the indicated protein fraction, nucleotides, and 1 mM additional MgCl2 at 30° C. for 1 hour in a final volume of 20 μl of buffer A. At the end of the incubation, 7 μl of 4×SDS sample buffer was added to each reaction. After boiling for 3 min, each sample was subjected to a 15% SDS-polyacrylamide gel electrophoresis (SDS-PAGE). The gel was transferred to a nitrocellulose filter which was subsequently exposed to a Kodak X-OMAT AR X-ray film (Eastman Kodak, Rochester, N.Y.) for 16 hr at room temperature. […]

hamster liver nuclei = assay: Reconstitution of DNA fragmentation and nuclear morphological change in HeLa S-100 immunodepleted of cytochrome c; assay type: biochemical; conditions: 1 μg added to immunodepleted HeLa S-100, 1 mM dATP
Procedure: as §1
To rule out the possibility that the Apaf-2 activity is due to a minor contaminating protein that co-purified with cytochrome c, an immunodepletion experiment was carried out using a monoclonal antibody against rat cytochrome c. This monoclonal antibody cross-reacts with purified Apaf-2. […]

Compound | initiation of apoptosis (variety of cell types) | Apaf-2 activity (dATP-dependent activation of CPP32) (CPP32 [1]) | restoration of dATP-dependent activation of CPP32 (CPP32 [2]) | restoration of DNA fragmentation (hamster liver nuclei)
O=C1c2c(O)ccc(O)c2C(=O)c2c(NCCNCCO)ccc(NCCNCCO)c21 [mitoxantrone HCl] | act to initiate apoptosis |  |  | 
rat liver cytochrome c: commercial cytochrome c from rat liver (Sigma) |  | have Apaf-2 activity; also recorded: initiated dATP-dependent activation of CPP32 as efficiently as Apaf-2 | restored | restored
COc1cc([C@@H]2c3cc4c(cc3[C@@H](O[C@@H]3O[C@@H]5CO[C@@H](C)O[C@H]5[C@H](O)[C@H]3O)[C@H]3COC(=O)[C@H]23)OCO4)cc(OC)c1O [etoposide] | act to initiate apoptosis |  |  | 
bovine heart cytochrome c: commercial cytochrome c from bovine heart (Sigma) |  | have Apaf-2 activity; also recorded: initiated dATP-dependent activation of CPP32 as efficiently as Apaf-2 | restored | restored
